# Reference: ChEMBL document CHEMBL3885881, “DrugMatrix”
# Species on record: Rattus norvegicus
# Assay: DrugMatrix - Regimen: Daily Repeat
# Assay type: toxicity, organism-based, Sprague-Dawley
# Parameters: regimen Daily Repeat, gender Male, age 6-8 weeks
# Conditions: in vivo, po, route oral GAVAGE, vehicle .5 % CMC; for ABSOLUTE BASOPHIL / ABSOLUTE EOSINOPHIL / ABSOLUTE LYMPHOCYTE / ABSOLUTE MONOCYTE / ABSOLUTE SEGMENTED NEUTROPHIL / BASOPHIL / EOSINOPHIL / ERYTHROCYTE COUNT / HEMATOCRIT / HEMOGLOBIN / LEUKOCYTE COUNT / LYMPHOCYTE / MEAN CORPUSCULAR HEMOGLOBIN / MEAN CORPUSCULAR HEMOGLOBIN CONCENTRATION / MEAN CORPUSCULAR VOLUME / MONOCYTE / NEUTROPHIL / NUCLEATED RED BLOOD CELLS / PLATELET COUNT: tissue Blood; for ALANINE AMINOTRANSFERASE / ALBUMIN / ALKALINE PHOSPHATASE / ASPARTATE AMINOTRANSFERASE / BLOOD UREA NITROGEN / CARBON DIOXIDE / CHLORIDE / CHOLESTEROL / CREATINE PHOSPHOKINASE / CREATININE / GLUCOSE / LACTATE DEHYDROGENASE / LIPASE / PHOSPHORUS / POTASSIUM / SODIUM / TOTAL BILIRUBIN / TOTAL PROTEIN / URIC ACID: tissue Plasma
# [1] = 0.1 mg/kg, 120 h, dose level Low, time 5 day
# [2] = […], 72 h, dose 1.1 mg/Kg, dose level High, time 3 day
# [3] = […], 120 h, dose 1.1 mg/Kg, dose level High, time 5 day
smiles,measurement,setting,value
CCCN1C[C@H](CSC)C[C@@H]2c3cccc4[nH]cc(c34)C[C@H]21 [PERGOLIDE],ABSOLUTE BASOPHIL,[1],0 CELLS/uL
same,ABSOLUTE EOSINOPHIL,[1],175 CELLS/uL
same,ABSOLUTE LYMPHOCYTE,[1],12836.67 CELLS/uL
same,ABSOLUTE MONOCYTE,[1],191.67 CELLS/uL
same,ABSOLUTE SEGMENTED NEUTROPHIL,[1],1130 CELLS/uL
same,BASOPHIL,[1],0%
same,EOSINOPHIL,[1],1%
same,ERYTHROCYTE COUNT,[1],6.04 x10E6/uL
same,HEMATOCRIT,[1],38.1%
same,HEMOGLOBIN,[1],14.47 G/DL
same,LEUKOCYTE COUNT,[1],14.33 x10E3/uL
same,LYMPHOCYTE,[1],89.67%
same,MEAN CORPUSCULAR HEMOGLOBIN,[1],24.1 pg
same,MEAN CORPUSCULAR HEMOGLOBIN CONCENTRATION,[1],38.07 G/DL
same,MEAN CORPUSCULAR VOLUME,[1],63.27 fL
same,MONOCYTE,[1],1.33%
same,NEUTROPHIL,[1],8%
same,NUCLEATED RED BLOOD CELLS,[1],0 /100WBC
same,PLATELET COUNT,[1],1209 x10E3/uL
same,ALANINE AMINOTRANSFERASE,[1],50.33 u/L
same,ALBUMIN,[1],4.13 G/DL
same,ALKALINE PHOSPHATASE,[1],348 u/L
same,ASPARTATE AMINOTRANSFERASE,[1],111.67 u/L
same,BLOOD UREA NITROGEN,[1],19.33 mg/dL
same,CARBON DIOXIDE,[1],24 mmol/L
same,CHLORIDE,[1],107 MEQ/L
same,CHOLESTEROL,[1],76.67 mg/dL
same,CREATINE PHOSPHOKINASE,[1],1319 u/L
same,CREATININE,[1],0.21 mg/dL
same,GLUCOSE,[1],156 mg/dL
same,LACTATE DEHYDROGENASE,[1],398.67 u/L
same,LIPASE,[1],10 u/L
same,PHOSPHORUS,[1],13.17 mg/dL
same,POTASSIUM,[1],6.18 MEQ/L
same,SODIUM,[1],145.93 MEQ/L
same,TOTAL BILIRUBIN,[1],0.2 mg/dL
same,TOTAL PROTEIN,[1],6.23 G/DL
same,URIC ACID,[1],2.13 mg/dL
same,ABSOLUTE BASOPHIL,[2],0 CELLS/uL
same,ABSOLUTE EOSINOPHIL,[2],0 CELLS/uL
same,ABSOLUTE LYMPHOCYTE,[2],11487 CELLS/uL
same,ABSOLUTE MONOCYTE,[2],388 CELLS/uL
same,ABSOLUTE SEGMENTED NEUTROPHIL,[2],1058.33 CELLS/uL
same,BASOPHIL,[2],0%
same,EOSINOPHIL,[2],0%
same,ERYTHROCYTE COUNT,[2],5.69 x10E6/uL
same,HEMATOCRIT,[2],36.2%
same,HEMOGLOBIN,[2],13.43 G/DL
same,LEUKOCYTE COUNT,[2],12.93 x10E3/uL
same,LYMPHOCYTE,[2],88.67%
same,MEAN CORPUSCULAR HEMOGLOBIN,[2],23.63 pg
same,MEAN CORPUSCULAR HEMOGLOBIN CONCENTRATION,[2],37.13 G/DL
same,MEAN CORPUSCULAR VOLUME,[2],63.6 fL
same,MONOCYTE,[2],3%
same,NEUTROPHIL,[2],8.33%
same,NUCLEATED RED BLOOD CELLS,[2],0 /100WBC
same,PLATELET COUNT,[2],1255.67 x10E3/uL
same,ALANINE AMINOTRANSFERASE,[2],71 u/L
same,ALBUMIN,[2],4.2 G/DL
same,ALKALINE PHOSPHATASE,[2],385.33 u/L
same,ASPARTATE AMINOTRANSFERASE,[2],116 u/L
same,BLOOD UREA NITROGEN,[2],16 mg/dL
same,CARBON DIOXIDE,[2],24.67 mmol/L
same,CHLORIDE,[2],104.67 MEQ/L
same,CHOLESTEROL,[2],68 mg/dL
same,CREATINE PHOSPHOKINASE,[2],406 u/L
same,CREATININE,[2],0.19 mg/dL
same,GLUCOSE,[2],157 mg/dL
same,LACTATE DEHYDROGENASE,[2],402.67 u/L
same,LIPASE,[2],10 u/L
same,PHOSPHORUS,[2],12.03 mg/dL
same,POTASSIUM,[2],6.59 MEQ/L
same,SODIUM,[2],145.53 MEQ/L
same,TOTAL BILIRUBIN,[2],0.2 mg/dL
same,TOTAL PROTEIN,[2],5.67 G/DL
same,URIC ACID,[2],1.73 mg/dL
same,ABSOLUTE BASOPHIL,[3],0 CELLS/uL
same,ABSOLUTE EOSINOPHIL,[3],64.33 CELLS/uL
same,ABSOLUTE LYMPHOCYTE,[3],14339 CELLS/uL
same,ABSOLUTE MONOCYTE,[3],275 CELLS/uL
same,ABSOLUTE SEGMENTED NEUTROPHIL,[3],888.33 CELLS/uL
same,BASOPHIL,[3],0%
same,EOSINOPHIL,[3],0.33%
same,ERYTHROCYTE COUNT,[3],6.31 x10E6/uL
same,HEMATOCRIT,[3],40.47%
same,HEMOGLOBIN,[3],15.03 G/DL
same,LEUKOCYTE COUNT,[3],15.57 x10E3/uL
same,LYMPHOCYTE,[3],92.33%
same,MEAN CORPUSCULAR HEMOGLOBIN,[3],23.77 pg
same,MEAN CORPUSCULAR HEMOGLOBIN CONCENTRATION,[3],37.23 G/DL
same,MEAN CORPUSCULAR VOLUME,[3],63.93 fL
same,MONOCYTE,[3],1.67%
same,NEUTROPHIL,[3],5.67%
same,NUCLEATED RED BLOOD CELLS,[3],0 /100WBC
same,PLATELET COUNT,[3],990.67 x10E3/uL
same,ALANINE AMINOTRANSFERASE,[3],44.33 u/L
same,ALBUMIN,[3],4.53 G/DL
same,ALKALINE PHOSPHATASE,[3],385.67 u/L
same,ASPARTATE AMINOTRANSFERASE,[3],82 u/L
same,BLOOD UREA NITROGEN,[3],17.33 mg/dL
same,CARBON DIOXIDE,[3],27.33 mmol/L
same,CHLORIDE,[3],108.33 MEQ/L
same,CHOLESTEROL,[3],76.67 mg/dL
same,CREATINE PHOSPHOKINASE,[3],501.67 u/L
same,CREATININE,[3],0.22 mg/dL
same,GLUCOSE,[3],154 mg/dL
same,LACTATE DEHYDROGENASE,[3],206.33 u/L
same,LIPASE,[3],9.33 u/L
same,PHOSPHORUS,[3],11.87 mg/dL
same,POTASSIUM,[3],6.29 MEQ/L
same,SODIUM,[3],147.9 MEQ/L
same,TOTAL BILIRUBIN,[3],0.23 mg/dL
same,TOTAL PROTEIN,[3],6.37 G/DL
same,URIC ACID,[3],1.63 mg/dL
